Assay results published in patent US9828374B2, “Substituted pyrazino[2,2-a]isoquinoline derivatives” (Hoffmann-La Roche Inc., priority 2014, dated 2017).

Assays:
[1] = target: mouse TAAR1 (Mus musculus (Mouse), UniProt Q923Y8); test: Radioligand binding assay on mouse TAAR1; settings: mouse TAAR1, HEK-293 membranes; first value of the mouse/rat pair
Experimental: (§1) Construction of TAAR Expression Plasmids and Stably Transfected Cell Lines
(§2) For the construction of expression plasmids the coding sequences of human, rat and mouse TAAR 1 were amplified from genomic DNA essentially as described by Lindemann et al..
(§3) The Expand High Fidelity PCR System (Roche Diagnostics) was used with 1.5 mM Mg^2+ and purified PCR products were cloned into pCR2.1-TOPO cloning vector (Invitrogen) following the instructions of the manufacturer. PCR products were subcloned into the pIRESneo2 vector (BD Clontech, Palo Alto, Calif.), and expression vectors were sequence verified before introduction in cell lines.
(§4) HEK293 cells (ATCC # CRL-1573) were cultured essentially as described by Lindemann et al. (2005). For the generation of stably transfected cell lines HEK293 cells were transfected with the pIRESneo2 expression plasmids containing the TAAR coding sequences (described above) with Lipofectamine 2000 (Invitrogen) according to the instructions of the manufacturer, and 24 hrs post transfection the culture medium was supplemented with 1 mg/ml G418 (Sigma, Buchs, Switzerland). After a culture period of about 10 d clones were isolated, expanded and tested for responsiveness to trace amines (all compounds purchased from Sigma) with the cAMP Biotrak Enzyme immunoassay (EIA) System (Amersham) following the non-acetylation EIA procedure provided by the manufacturer.
Radioligand Binding Assay on Mouse TAAR1
(§5) Membrane Preparation and Radioligand Binding.
(§6) HEK-293 cells stably expressing mouse TAAR1 were maintained at 37° C. and 5% CO2 in DMEM high glucose medium, containing fetal calf serum (10%, heat inactivated for 30 min at 56° C.), penicillin/streptomycin (1%), and 375 μg/ml geneticin (Gibco). Cells were released from culture flasks using trypsin/EDTA, harvested, washed twice with ice-cold PBS (without Ca^2+ and Mg^2+), pelleted at 1,000 rpm for 5 min at 4° C., frozen and stored at −80° C. Frozen pellets were suspended in 20 ml HEPES-NaOH (20 mM, pH 7.4) containing 10 mM EDTA and homogenized with a Polytron (PT 6000, Kinematica) at 14,000 rpm for 20 s. The homogenate was centrifuged at 48,000×g for 30 min at 4° C. Subsequently, the supernatant was removed and discarded, and the pellet resuspended in 20 ml HEPES-NaOH (20 mM, pH 7.4) containing 0.1 mM EDTA using the Polytron (20 s at 14,000 rpm). This procedure was repeated and the final pellet resuspended in HEPES-NaOH containing 0.1 mM EDTA and homogenized using the Polytron. Typically, aliquots of 2 ml membrane portions were stored at −80° C. With each new membrane batch the dissociation constant (Kd) was determined via a saturation curve. […] Nonspecific binding was defined as the amount of ^3[H]-(S)-4-[(ethyl-phenyl-amino)-methyl]-4,5-dihydro-oxazol-2-ylamine bound in the presence of 10 μM unlabeled ligand. All compounds were tested at a broad range of concentrations (10 pM to 10 μM) in duplicates. […] The 96 deep well plates were incubated for 1 hr at 4° C. Incubations were terminated by rapid filtration through Unifilter-96 plates (Packard Instrument Company) and glass filters GF/C (Perkin Elmer) presoaked for 1 hr in polyethylenimine (0.3%) and washed 3 times with 1 ml of cold binding buffer. After addition of 45 μl of Microscint 40 (PerkinElmer) the Unifilter-96 plate was sealed and after 1 hr the radioactivity counted using a TopCount Microplate Scintillation Counter (Packard Instrument Company).

[2] = target: rat TAAR1 (Rattus norvegicus (Rat), UniProt Q923Y9); test: Radioligand binding assay on rat TAAR1; settings: rat TAAR1, HEK-293 membranes; second value of the mouse/rat pair
rat TAAR1, sequence (Q923Y9 whole entry): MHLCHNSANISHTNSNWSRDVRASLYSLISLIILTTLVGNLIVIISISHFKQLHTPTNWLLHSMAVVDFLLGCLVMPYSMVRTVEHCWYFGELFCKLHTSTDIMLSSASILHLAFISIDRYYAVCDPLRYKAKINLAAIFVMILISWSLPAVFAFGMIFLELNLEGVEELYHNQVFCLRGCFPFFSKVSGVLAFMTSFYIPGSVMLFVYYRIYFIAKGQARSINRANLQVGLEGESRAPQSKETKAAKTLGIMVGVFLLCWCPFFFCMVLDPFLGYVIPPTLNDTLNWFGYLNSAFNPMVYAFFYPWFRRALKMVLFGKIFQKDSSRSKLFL
Experimental: as §1, §2, §3, §4
Radioligand Binding Assay on Rat TAAR1
as §5
as §6, with “rat” for “mouse”, “[H]-(S)-4-[(ethyl-phenyl-amino)-methyl]-4,5-dihydro-oxazol-2-ylamine” for “^3[H]-(S)-4-[(ethyl-phenyl-amino)-methyl]-4,5-dihydro-oxazol-2-ylamine”, “[…]” for “pM”

mouse TAAR1, sequence (Q923Y8 whole entry): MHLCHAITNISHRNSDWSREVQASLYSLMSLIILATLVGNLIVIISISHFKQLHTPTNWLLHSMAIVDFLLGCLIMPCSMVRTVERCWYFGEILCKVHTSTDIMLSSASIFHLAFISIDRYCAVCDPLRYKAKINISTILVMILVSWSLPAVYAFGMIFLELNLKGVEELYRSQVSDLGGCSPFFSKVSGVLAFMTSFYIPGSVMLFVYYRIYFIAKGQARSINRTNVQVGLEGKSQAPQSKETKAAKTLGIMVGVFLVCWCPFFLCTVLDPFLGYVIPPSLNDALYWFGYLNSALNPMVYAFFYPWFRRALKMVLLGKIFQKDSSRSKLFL

Compound | Ki [1] | Ki [2]
O=C(Nc1ccc2c(c1)CCN1CCNC[C@H]21)c1ccc(Cl)cc1 [Example 8, N-[(11bS)-2,3,4,6,7,11b-hexahydro-1H-pyrazino[2,1-a]isoquinolin-9-yl]-4-chloro-benzamide] | 0.0075 µM | 0.0063 µM
FC(F)(F)c1nccc(Nc2ccc3c(c2)CCN2CCNC[C@H]32)n1 [Example 11, (11bS)-N-[2-(trifluoromethyl)pyrimidin-4-yl]-2,3,4,6,7,11b-hexahydro-1H-pyrazino[2,1-a]isoquinolin-9-amine] | 1.18 µM | 0.904 µM
Cc1ccc2c(c1)CCN1CCNC[C@@H]21 [Example 28, (11bR)-9-methyl-2,3,4,6,7,11b-hexahydro-1H-pyrazino[2,1-a]isoquinoline] | 0.29 µM | 0.421 µM
O=C(Nc1ccc(C(F)(F)F)cc1)Nc1ccc2c(c1)CCN1CCNC[C@@H]21 [Example 35, (R)-1-(2,3,4,6,7,11b-hexahydro-1H-pyrazino[2,1-a]isoquinolin-9-yl)-3-(4-(trifluoromethyl)phenyl)urea] | 0.0025 µM | 0.0012 µM
c1ccc2c(c1)CCN1CCNC[C@@H]21 [Example 15, (11bR)-2,3,4,6,7,11b-hexahydro-1H-pyrazino[2,1-a]isoquinoline] | 0.0605 µM | 0.248 µM
FC(F)(F)c1cnc(Nc2ccc3c(c2)CCN2CCNC[C@H]32)cn1 [Example 12, (11bS)-N-[5-(trifluoromethyl)pyrazin-2-yl]-2,3,4,6,7,11b-hexahydro-1H-pyrazino[2,1-a]isoquinolin-9-amine] | 0.219 µM | 1.98 µM
c1cc2c(cc1Nc1nc(C3CC3)no1)CCN1CCNC[C@@H]21 [Example 37, N-[(11R)-2,3,4,6,7,11-hexahydro-1H-pyrazino[2,1-a]isoquinolin-9-yl]-3-cyclopropyl-1,2,4-oxadiazol-5-amine] | 0.0347 µM | 0.198 µM
CN(C)c1cc(Nc2ccc3c(c2)CCN2CCNC[C@@H]32)nc(C(F)(F)F)n1 [Example 19, N4-[(11bR)-2,3,4,6,7,11b-hexahydro-1H-pyrazino[2,1-a]isoquinolin-9-yl]-N6,N6-dimethyl-2-(trifluoromethyl)pyrimidine-4,6-diamine] | 0.0231 µM | 0.0076 µM
O=C(Nc1ccc2c(c1F)CCN1CCNC[C@@H]21)c1ccnc(C(F)(F)F)c1 [Example 32, N-[(11bR)-8-fluoro-2,3,4,6,7,11b-hexahydro-1H-pyrazino[2,1-a]isoquinolin-9-yl]-2-(trifluoromethyl)pyridine-4-carboxamide] | 0.444 µM | 7.63 µM
CCc1ccc2c(c1)CCN1CCNC[C@@H]21 [Example 27, (11bR)-9-ethyl-2,3,4,6,7,11b-hexahydro-1H-pyrazino[2,1-a]isoquinoline] | 0.266 µM | 0.288 µM
Nc1ccc2c(c1)CCN1CCNC[C@@H]21 [Example 47, (11bR)-2,3,4,6,7,11b-hexahydro-1H-pyrazino[2,1-a]isoquinolin-9-amine] | 1.1 µM | > 1.5 µM
O=C(Nc1cnc(Cl)nc1)c1ccc2c(c1)CCN1CCNC[C@@H]21 [Example 46, (11bR)-N-(2-chloropyrimidin-5-yl)-2,3,4,6,7,11b-hexahydro-1H-pyrazino[2,1-a]isoquinoline-9-carboxamide] | 0.309 µM | > 1.5 µM
FC(F)(F)c1nc(Cl)cc(Nc2ccc3c(c2)CCN2CCNC[C@@H]32)n1 [Example 21, (11bR)-N-[6-chloro-2-(trifluoromethyl)pyrimidin-4-yl]-2,3,4,6,7,11b-hexahydro-1H-pyrazino[2,1-a]isoquinolin-9-amine] | 0.0264 µM | 0.0134 µM
FC(F)(F)c1nccc(Nc2ccc3c(c2)CCN2CCNC[C@@H]32)n1 [Example 5, (11bR)-N-[2-(trifluoromethyl)pyrimidin-4-yl]-2,3,4,6,7,11b-hexahydro-1H-pyrazino[2,1-a]isoquinolin-9-amine] | 0.0354 µM | 0.0151 µM
COc1ccc(NC(=O)Nc2ccc3c(c2)CCN2CCNC[C@@H]32)cc1 [Example 36, (R)-1-(2,3,4,6,7,11b-hexahydro-1H-pyrazino[2,1-a]isoquinolin-9-yl)-3-(4-methoxyphenyl)urea] | 0.0101 µM | 0.023 µM
CC(C)c1cc(C(=O)Nc2ccc3c(c2)CCN2CCNC[C@@H]32)n(C)n1 [Example 39, (R)-N-(2,3,4,6,7,11b-hexahydro-1H-pyrazino[2,1-a]isoquinolin-9-yl)-3-isopropyl-1-methyl-1H-pyrazole-5-carboxamide] | 1.07 µM | 0.869 µM
FC(F)(F)c1ccnc(Nc2ccc3c(c2)CCN2CCNC[C@@H]32)n1 [Example 24, (11bR)-N-[4-(trifluoromethyl)pyrimidin-2-yl]-2,3,4,6,7,11b-hexahydro-1H-pyrazino[2,1-a]isoquinolin-9-amine] | 0.0599 µM | 0.0471 µM
c1cc2c(cc1C1CC1)CCN1CCNC[C@@H]21 [Example 29, (11bR)-9-cyclopropyl-2,3,4,6,7,11b-hexahydro-1H-pyrazino[2,1-a]isoquinoline] | 1.81 µM | 0.815 µM
O=C(Nc1ccc2c(c1)CCN1CCNC[C@H]21)c1cnc(C(F)(F)F)nc1 [Example 10, N-[(11bS)-2,3,4,6,7,11b-hexahydro-1H-pyrazino[2,1-a]isoquinolin-9-yl]-2-(trifluoromethyl)pyrimidine-5-carboxamide] | 0.189 µM | 0.191 µM
O=C(Nc1ccc2c(c1)CCN1CCNC[C@H]21)c1ccnc(C(F)(F)F)c1 [Example 9, N-[(11bS)-2,3,4,6,7,11b-hexahydro-1H-pyrazino[2,1-a]isoquinolin-9-yl]-2-(trifluoromethyl)pyridine-4-carboxamide] | 0.0144 µM | 0.0142 µM
O=C(Nc1ccc2c(c1)CCN1CCNC[C@@H]21)c1ccnc(C(F)(F)F)c1 [Example 1, N-[(11bR)-2,3,4,6,7,11b-hexahydro-1H-pyrazino[2,1-a]isoquinolin-9-yl]-2-(trifluoromethyl)pyridine-4-carboxamide] | 0.121 µM | 0.199 µM
COc1cc(Nc2ccc3c(c2)CCN2CCNC[C@@H]32)nc(C(F)(F)F)n1 [Example 18, (11bR)-N-[6-methoxy-2-(trifluoromethyl)pyrimidin-4-yl]-2,3,4,6,7,11b-hexahydro-1H-pyrazino[2,1-a]isoquinolin-9-amine] | 0.0439 µM | 0.0092 µM
